Assay results from US20230013402A1, “REGENERATING FUNCTIONS AND PHENOTYPES OF CONNECTIVE TISSUE THROUGH NPAS2 SUPPRESSION” (The Regents of the University of California, priority 2019, published 2023).
Entries after “also recorded” stand apart in the source; their conditions may differ.

What was measured:
[1] = tested on: bone marrow stromal cells (BMSC); experiment: In vitro mineralization / osteogenic differentiation of BMSC (MSC) in osteogenic medium; type: cell-based, mouse
Excerpt: (§1) FIGS. 7A-7B show the effect of Reserpine on bone marrow stromal cells osteogenic differentiation. […] Bars: Tukey analysis with p<0.05. […] The expression values were normalized with day 0 RNA.
(§2) FIGS. 11A-11D(b) show results of in vitro biological assays of Npas2 suppressing compound Dwn1 (Reserpine).
(§3) Reserpine was selected and its effect on bone marrow stromal cells (BMSC) was characterized for osteogenic differentiation.
To evaluate the mechanism of action involving Npas2, Reserpine was applied to WT, Npas2+/− and Npas2−/− mouse BMSC and evaluated for in vitro osteogenic differentiation.
(§4) The small molecule compound that scored the best combined z score in Example 2, Dwn1 (Reserpine) was selected for in vitro biological assays. […] BMP-2 has been used as a gold standard for accelerated osteogenic differentiation of MSC (48, 49). […] The expression of core clock gene Bmal1 was not affected by Dwn1 (FIG. 11C). Dwn1 increased in vitro mineralization of Npas2+/− MSC, but not of Npas2−/− MSC (FIG. 11D), implying that the effect of Dwn1 (Reserpine) was facilitated primarily by Npas2 suppression.

[2] = tested on: murine dermal fibroblasts; experiment: Collagen synthesis by picrosirius red staining; type: cell-based, mouse; conditions: day 7; 1 μM or 10 μM; vs control and 50 μg AA
Protocol: The effects of two different concentrations of Dwn1 (1 μM or 10 μM) on collagen synthesis in murine dermal fibroblast in vitro were examined Murine dermal fibroblasts were seeded into 24-well plates and cultured at 80%-90% confluency in medium supplemented with ascorbic acid (50 μg/mL) for 1, 3, and 7 days. The cells were then fixed with 10% neutral buffered formalin and stained with Picrosirius red (PolyScience, Niles, Ill.) for visualizing the collagen. AA: 1-ascorbic acid. OD: optical density. CTRL: cell treated with control medium without AA. […] (FIG. 35A) The absorption value was read in a spectrophotometer at 550 nm with a plate reader ([…] H1 plate reader) and compared by one-way ANOVA with the post hoc Holm test.

Npas2-LacZ expression = experiment: Titration assay: effective concentration by LacZ expression in MSC Npas2-LacZ; type: cell-based, mouse; conditions: serial dilution 100 μM to 0.2 nM
Protocol: Dwn1 was serially diluted from 100 μM to 0.2 nM and applied to MSC Npas2-LacZ. Effective concentration (EC) was determined by LacZ expression and inhibitory concentration (IC) was determined by cell viability using Calcein AM/Hoechst 33342 staining DwnC and Dwn1 are both Reserpine.
Dwn1 was identical to the previously identified DwnC compound from the LOPAC library. Dwn1 compound (Reserpine) was selected for serial dilution analysis. […] Dwn1 was used for preliminary in vitro and in vivo studies described below. Additional compounds suppressing Npas2 were identified (Table 2).
Dwn1 was serially diluted from 100 μM to 0.2 nM and applied to MSC Npas2-LacZ. EC was determined by LacZ expression and IC was determined by cell viability using Calcein AM/Hoechst 33342 staining.

[3] = tested on: osteocalcin (Ocn), osteopontin (Opn), Bmal1 expression; experiment: Real time RT-PCR of osteogenic and clock genes in BMSC (MSC); type: cell-based, mouse
Excerpt: as §1, §2, §3, §4

human skin fibroblasts = experiment: High-throughput cell migration assay (Oris Pro Cell Migration Assay plate) / standardized viability; type: cell-based; conditions: Table 1; HTS of FDA Drug Library
Excerpt: (§5) Mouse MSC carrying Npas2-LacZ reporter gene, as described by Hassan N, et al., PLoS One. 2017; 12(8):e0183359, which is incorporated by reference herein in its entirety, was immortalized using SV40 in order to accommodate a large-scale HTS. […] This cell system was used to screen FDA Approved Drug Library (1120 compounds). The same library was also screened for cell viability by Calcein AM Hoechst 33342 staining Cell migration assays using the Oris™ Pro Cell Migration Assay plate, as described by Joy M E et al., PloS one. 2014; 9(2):e88350, which is incorporated by reference herein in its entirety, was used for a high-throughput migration assay using human skin fibroblasts
(§6) The combined Z score was used to identify hit compounds (Table 1).

fibroblasts = experiment: In vitro wound healing: scratch fibroblast migration and collagen gel contraction; type: cell-based, mouse; conditions: listed as Dwn1
Protocol: The in vitro wound healing ability of Dwn1 was tested using a previously described method.
Fibroblasts were seeded into a 6-well plate and were synchronized as above. After 2 hr, scratch lines were created with a 20 μL plastic pipette and were washed with medium (n=5 per group). These scratched areas were captured by time-lapse photomicrography every hour from 0 to 24 hr. The number of migrated cells into the scratched area was counted at 12 and 24 hr and compared by one-way ANOVA with post hoc Holm test.
The floating collagen gel contraction assay was performed following the previously established protocol with some modifications (Ngo et al., 2006). A 500 μL aliquot of collagen gel mixture (Collagen Type I, Corning, Manassas, Va.) containing fibroblasts (50,000 cells) was applied to a 24-well plate (n=5 in each group) and placed at room temperature for 20 min. The solidified gels were transferred to a 100 mm diameter dish and cultured (37_C, 5% CO2 in a humidified incubator). The gel images were scanned by a scanner at 0, 6, 12, 24, 48, and 72 hr. The collagen gel area at each time point was measured (NIH ImageJ ver.1.51) and compared by two-way ANOVA, followed by the Tukey test at each time point.
As described herein, a small molecule inhibitor of Neuronal PAS domain 2 (Npas2), Dwn1, improves wound healing and minimizes scarring.

[4] = tested on: Npas2-LacZ reporter gene (Npas2 expression); experiment: High throughput screening of FDA Approved Drug Library for Npas2-LacZ reporter expression; type: cell-based, mouse; conditions: Table 1
Excerpt: as §5, §6

What does the source list for `COC(=O)[C@H]1[C@H]2C[C@@H]3c4[nH]c5cc(OC)ccc5c4CCN3C[C@H]2C[C@@H](OC(=O)c2cc(OC)c(OC)c(OC)c2)[C@@H]1OC` [Reserpine]?
In vitro mineralization compared with BMP-2 supplementation ([1]; Dwn1 1 μM vs BMP-2 100 ng/ml): equivalent to BMP-2 (100 ng/ml) supplementation; In vitro mineralization / osteogenic differentiation ([1]; Npas2+/− BMSC/MSC): reproducibly observed; In vitro mineralization / osteogenic differentiation ([1]; Npas2+/− BMSC/MSC, listed as Dwn1): responded; also recorded: increased; In vitro mineralization / osteogenic differentiation ([1]; Npas2−/− BMSC/MSC): did not modulate; In vitro mineralization / osteogenic differentiation ([1]; wild type BMSC/MSC, osteogenic medium, alizarin red): increased alizarin red positive in vitro mineralization; also recorded: dose-dependently accelerated in vitro mineralization; also recorded: reproducibly observed; In vitro mineralization / osteogenic differentiation ([1]; wild type BMSC/MSC, osteogenic medium, alizarin red, listed as Dwn1): increased dose-dependently; also recorded: dose dependently increased; also recorded: dose-dependently increased; Picrosirius red staining (collagen fiber formation and accumulation) [2]: increase of a positive reaction; Effective concentration (EC) (Npas2-LacZ expression): 0.5 to 10 µM; Expression of core clock gene Bmal1 ([3]; MSC, listed as Dwn1): did not affect; also recorded: not affected; Expression of osteocalcin (Ocn) ([3]; day 21): significantly increased; Expression of osteopontin (Opn) ([3]; day 21): mildly affected; Expression of osteocalcin (Ocn) ([3]; day 21, listed as Dwn1): increased as early as D21; also recorded: accelerated expression; Migration (standardized viability) Z Score (human skin fibroblasts): 4.19; Collagen gel contraction (fibroblasts): accelerates; Fibroblast migration in scratch wound healing assay (fibroblasts): accelerates; NPAS2 Z Score ([4]; HTS of FDA Drug Library): −2.57; NPAS Z × ViabilityZ ([4]; combined Z score (product)): −10.77
